The data set is described as follows: Evaluation of wet heat resistance of optical film (change of in-plane retardation Re). It is filed as physicochemical. The following applies: HB(C6F5)4 used instead of the additive B-1 of Example 1. Here is the method: The optical film manufactured in each of Examples and Comparative Examples was left to stand in an environment at a temperature of 65° C. and a humidity of 90% for 500 hours, and the in-plane retardation Re of the optical film before being left to stand in a wet heat environment (initial Re1) and the in-plane retardation Re of the optical film after being left to stand in a wet heat environment (Re1 after standing) were compared to each other to calculate a Re change rate 1.
Furthermore, the Re change rate 1 is calculated by the following equation.
Re change rate 1(%)={(Initial Re1−Re1 after standing)/Initial Re1}×100
Furthermore, a comparative optical film was manufactured without use of an additive of each of Examples and Comparative Examples, and according to the same procedure as above, the in-plane retardation Re of the comparative optical film before being left to stand in a wet heat environment (initial Re2) and the in-plane retardation Re of the comparative optical film after being left to stand in a wet heat environment (Re2 after standing) were compared to each other to calculate a Re change rate 2.
Furthermore, the Re change rate 2 is calculated by the following equation. […]
A difference between the Re change rate 2 and the Re change rate 1 (Re change rate 2-Re change rate 1) was evaluated according to the following standard. […]

Regarding `Fc1c(F)c(F)c([B-](c2c(F)c(F)c(F)c(F)c2F)(c2c(F)c(F)c(F)c(F)c2F)c2c(F)c(F)c(F)c(F)c2F)c(F)c1F.[H+]` [HB(C6F5)4], the “Wet heat resistance (in words)” value was “the same extent of effects as in Example 1”.
